Like-named read-outs stand apart in the source and are kept apart here.
Target: recombinant human HDACs (Homo sapiens)
Assay: HDAC enzymatic assay
Format: biochemical
Conditions: 5 nM HDAC enzyme, 5 h pre-incubation, 17 h reaction at 25° C., isoform not given
Protocol: All recombinant human HDACs were purchased from BPS Bioscience. The substrate, FAM-TSRHK(AC)KL-CONH, was synthesized at NanoSyn. Final assay reactions contained 100 mM HEPES (pH 7.5), 50 mM KCl, 0.1% BSA, 0.01% Triton X-100, 1% DMSO, 1 uM substrate and 5 nM HDAC enzyme. Enzyme and compounds were pre-incubated at 25° C. for 5 hours and reactions were initiated by addition of substrate. 10 uL reactions were incubated for 17 hours at 25° C. and terminated by the addition of 40 uL of buffer containing 100 mM HEPES (pH 7.5), 0.1% BSA, 0.01% Triton X-100 and 0.05% SDS. Substrate and product peptides present in each sample were separated electrophoretically using the LabChip 3000 capillary electrophoresis instrument. Change in the relative fluorescence intensity of the substrate and product peaks reflects enzyme activity. Reaction progress was determined as the product to sum ratio (PSR):P/(S+P), where P is the peak height of the product peptide and S is the peak height of the substrate peptide. Reactions were performed in duplicate at 12 concentrations, (3× serial dilutions starting at 30 uM). IC50 values were calculated using a 4 Parameter Logistic Model.

| IC50 (read-out: IC50) [nM] | Compound | IC50 [nM] |
| --- | --- | --- |
| 500 to 5000 | Nc1ccc(-c2ccc(OC(F)F)cc2)nc1NC(=O)N1Cc2nccnc2C1 [Compound 228] | – |
| 500 to 5000 | Nc1ccc(-c2ccc(OC(F)F)cc2)nc1NC(=O)N1CCCC1 [Compound 232] | – |
| > 5000 | Nc1ccc(-c2ccc(F)cc2)nc1NC(=O)N1CC2CN(CC3CCOCC3)CC2C1 (stereo not shown) [Compound 235] | – |
| > 5000 | Nc1ccc(-c2ccc(F)cc2)nc1NC(=O)N1CC2CN(C3CCOCC3)CC2C1 (stereo not shown) [Compound 236] | – |
| > 5000 | CN(C1CCOC1)C1CC2CN(C(=O)Nc3nc(-c4ccc(F)cc4)ccc3N)CC2C1 (stereo not shown) [Compound 237] | – |
| 500 to 5000 | Nc1ccc(-c2ccc(F)cc2)nc1NC(=O)N1C[C@@H]2[C@@H](CO)[C@@H]2C1 [Compound 238] | – |
| > 5000 | Nc1ccc(-c2ccc(F)cc2)nc1NC(=O)C1[C@H]2CN(C3COC3)C[C@@H]12 (stereo partly shown) [Compound 239] | – |
| 100 to 500 | Nc1ccc(-c2ccc(F)cc2)nc1NC(=O)N1Cc2cnc(C3CCOCC3)cc2C1 [Compound 240] | – |
| > 5000 | CN1CC(N2C[C@@H]3C(C(=O)Nc4nc(-c5ccc(F)cc5)ccc4N)[C@@H]3C2)C1 (stereo partly shown) [Compound 241] | – |
| > 5000 | CN(C)[C@H]1[C@@H]2CN(C(=O)Nc3nc(-c4ccc(F)cc4)ccc3N)C[C@@H]21 [Compound 242] | – |
| – | COCc1cc2c(cn1)CN(C(=O)Nc1nc(-c3ccc(F)cc3)ccc1N)C2 [Compound 243] | 100 to 500 |
| 500 to 5000 | CN1CC(Cn2ncc3c2CN(C(=O)Nc2nc(-c4ccc(F)cc4)ccc2N)C3)C1 [Compound 244] | – |
| 100 to 500 | CN1CC(Cn2cc3c(n2)CN(C(=O)Nc2nc(-c4ccc(F)cc4)ccc2N)C3)C1 [Compound 245] | – |
| > 5000 | CN1CC(n2ncc3c2CN(C(=O)Nc2nc(-c4ccc(F)cc4)ccc2N)C3)C1 [Compound 246] | – |
| 100 to 500 | CN1CC(n2cc3c(n2)CN(C(=O)Nc2nc(-c4ccc(F)cc4)ccc2N)C3)C1 [Compound 247] | – |
| 500 to 5000 | CN(C1COC1)C1CC2CN(C(=O)Nc3nc(-c4ccc(F)cc4)ccc3N)CC2C1 (stereo not shown) [Compound 248] | – |
| > 5000 | Nc1ccc(-c2ccc(F)cc2)nc1NC(=O)N1Cc2cccc(N3CCCC3)c2C1 [Compound 249] | – |
| 100 to 500 | CN1CCC(c2cnc3c(c2)CN(C(=O)Nc2nc(-c4cccs4)ccc2N)C3)CC1 [Compound 250] | – |
| 100 to 500 | CN1CCC(c2cnc3c(c2)CN(C(=O)Nc2nc(-c4ccc(F)cc4)ccc2N)C3)CC1 [Compound 252] | – |
| 500 to 5000 | Nc1ccc(-c2ccc(F)cc2)nc1NC(=O)N1Cc2cc(N3CCC3)cnc2C1 [Compound 254] | – |
| 100 to 500 | Nc1ccc(-c2ccc(F)cc2)nc1NC(=O)N1Cc2cc(C3CC3)cnc2C1 [Compound 255] | – |
| 500 to 5000 | CN1CC(CN2CC3CC(C(=O)Nc4nc(-c5ccc(F)cc5)ccc4N)CC3C2)C1 (stereo not shown) [Compound 256] | – |
| – | Cn1cc2c(n1)CN(C(=O)Nc1nc(-c3ccc(F)cc3)ccc1N)C2 [Compound 257] | 100 to 500 |
| 500 to 5000 | Cn1ncc2c1CN(C(=O)Nc1nc(-c3ccc(F)cc3)ccc1N)C2 [Compound 258] | – |
| 100 to 500 | Nc1ccc(-c2ccc(F)cc2)nc1NC(=O)N1Cc2cccc(F)c2C1 [Compound 259] | – |
| 100 to 500 | COc1cc2c(cn1)CN(C(=O)Nc1nc(-c3ccc(F)cc3)ccc1N)C2 [Compound 260] | – |

| IC50 (read-out: IC50) [nM] | Compound | IC50 [nM] |
| --- | --- | --- |
| > 5000 | Cc1cc(F)ccc1-c1ccc(N)c(NC(=O)N2Cc3cnc(CN(C)C)cc3C2)n1 [Compound 261] | – |
| > 5000 | CN(C1COC1)[C@H]1[C@@H]2CN(C(=O)Nc3nc(-c4ccc(F)cc4)ccc3N)C[C@@H]21 [Compound 262] | – |
| > 5000 | Nc1ccc(-c2ccc(F)cc2)nc1NC(=O)C1[C@H]2CN(C3CCOCC3)C[C@@H]12 (stereo partly shown) [Compound 264] | – |
| 500 to 5000 | CN1CCC(c2cnc3c(c2)CN(C(=O)Nc2nc(-c4cccnc4)ccc2N)C3)CC1 [Compound 265] | – |
| 500 to 5000 | Nc1ccc(-c2ccc(F)cc2)nc1NC(=O)N1Cc2cc(CN3CC(F)(F)C3)cnc2C1 [Compound 266] | – |
| > 5000 | Nc1ccc(-c2ccc(F)cc2)nc1NC(=O)N1C[C@@H]2[C@H](C1)[C@H]2NC1COC1 [Compound 267] | – |
| > 5000 | CN1CC(CN2C[C@@H]3[C@H](C2)[C@H]3C(=O)Nc2nc(-c3ccc(F)cc3)ccc2N)C1 [Compound 268] | – |
| > 5000 | CN1CCN(C[C@@H]2[C@H]3CN(C(=O)Nc4nc(-c5ccc(F)cc5)ccc4N)C[C@@H]23)CC1 [Compound 269] | – |
| > 5000 | Nc1ccc(-c2ccc(F)cc2)nc1NC(=O)N1C[C@@H]2[C@@H](CN3CCC3)[C@@H]2C1 [Compound 270] | – |
| 100 to 500 | Nc1ccc(-c2ccc(F)cc2)nc1NC(=O)N1Cc2cc(CN3CCC3)cnc2C1 [Compound 272] | – |
| 100 to 500 | Nc1ccc(-c2ccc(F)cc2)nc1NC(=O)N1Cc2cc(CN3CCC(F)(F)C3)cnc2C1 [Compound 273] | – |
| 100 to 500 | CC(C)Cc1cnc2c(c1)CN(C(=O)Nc1nc(-c3ccc(F)cc3)ccc1N)C2 [Compound 274] | – |
| 100 to 500 | Nc1ccc(-c2ccc(F)cc2)nc1NC(=O)N1Cc2cc(CN3CC(F)C3)cnc2C1 [Compound 275] | – |
| 500 to 5000 | COC[C@@H]1[C@H]2CN(C(=O)Nc3nc(-c4ccc(F)cc4)ccc3N)C[C@@H]12 [Compound 276] | – |
| 500 to 5000 | Nc1ccc(-c2ccc(F)cc2)nc1NC(=O)N1Cc2cncnc2C1 [Compound 277] | – |
| 500 to 5000 | Nc1cn(-c2ccccc2)nc1NC(=O)N1Cc2ccc(CO)cc2C1 [Compound 350] | – |
| 100 to 500 | CN(C)Cc1ccc2c(c1)CN(C(=O)Nc1nn(-c3ccccc3)cc1N)C2 [Compound 351] | – |
| 500 to 5000 | CN1CCN(c2ccc3c(c2)CN(C(=O)Nc2nn(-c4ccccc4)cc2N)C3)CC1 [Compound 352] | – |
| 500 to 5000 | CN1CCN(Cc2ccc3c(c2)CN(C(=O)Nc2nn(-c4ccccc4)cc2N)C3)CC1 [Compound 353] | – |
| > 5000 | CN1CCC(C(=O)Nc2nn(-c3ccccc3)cc2N)CC1 [Compound 354] | – |
| > 5000 | Nc1cn(-c2ccccc2)nc1NC(=O)N1CCN(C2COC2)CC1 [Compound 356] | – |
| > 5000 | Nc1cn(-c2ccccc2)nc1NC(=O)N1CCNCC1 [Compound 357] | – |
| > 5000 | CC(=O)N1CCC(C(=O)Nc2nn(-c3ccccc3)cc2N)CC1 [Compound 358] | – |
| > 5000 | Nc1cn(-c2ccccc2)nc1NC(=O)C1CCN(C2COC2)CC1 [Compound 359] | – |
| > 5000 | CC(=O)N1CCN(C(=O)Nc2nn(-c3ccccc3)cc2N)CC1 [Compound 360] | – |
| > 5000 | CN1CCN(C(=O)Nc2nn(-c3ccccc3)cc2N)CC1 [Compound 361] | – |

| IC50 (read-out: IC50) [nM] | Compound | IC50 [nM] |
| --- | --- | --- |
| 100 to 500 | COC1CCN(Cc2ccc3c(c2)CN(C(=O)Nc2nc(-c4ccc(F)cc4)ccc2N)C3)C1 (stereo not shown) [Compound 363] | – |
| 500 to 5000 | Nc1ccc(-c2ccc(F)cc2)nc1NC(=O)N1CCC(F)(F)C1 [Compound 364] | – |
| 100 to 500 | CN(C)Cc1ccc2c(c1)CN(C(=O)Nc1nc(-c3ccco3)ccc1N)C2 [Compound 365] | – |
| 100 to 500 | Nc1ccc(-c2ccc(F)cc2)nc1NC(=O)N1Cc2ccc(CO)cc2C1 [Compound 366] | – |
| 100 to 500 | CN1CCN(Cc2ccc3c(c2)CN(C(=O)Nc2nc(-c4ccc(F)cc4)ccc2N)C3)CC1 [Compound 367] | – |
| 500 to 5000 | CN1CCC(N2CCC(C(=O)Nc3nc(-c4ccc(F)cc4)ccc3N)CC2)CC1 [Compound 368] | – |
| 500 to 5000 | Nc1ccc(-n2cccn2)nc1NC(=O)N1Cc2ccncc2C1 [Compound 369] | – |
| > 5000 | Nc1ccc(-n2cccn2)nc1NC(=O)C1CCN(Cc2ccccc2F)CC1 [Compound 370] | – |
| 100 to 500 | CN(C)Cc1ccc2c(c1)CN(C(=O)Nc1nc(-c3ccc(F)cc3)ccc1N)C2 [Compound 371] | – |
| 500 to 5000 | Nc1ccc(-c2ccco2)nc1NC(=O)N1Cc2ccncc2C1 [Compound 372] | – |
| 100 to 500 | Nc1ccc(-c2ccc(F)cc2)nc1NC(=O)N1Cc2ccncc2C1 [Compound 373] | – |
| 100 to 500 | CN1CCN(c2ccc3c(c2)CN(C(=O)Nc2nc(-c4ccc(F)cc4)ccc2N)C3)CC1 [Compound 374] | – |
| > 5000 | CN1CCC(COC(=O)Nc2nc(-c3cccnc3)ccc2N)CC1 [Compound 375] | – |
| > 5000 | CN1CC(CC(=O)Nc2nc(-c3ccc(F)cc3)ccc2N)C1 [Compound 376] | – |
| > 5000 | Nc1ccc(-c2ccccc2)nc1NC(=O)C1CCN(Cc2cccnc2)CC1 [Compound 377] | – |
| > 5000 | Nc1ccc(-c2cccnc2)nc1NC(=O)C1CCN(Cc2ccccc2F)CC1 [Compound 378] | – |
| > 5000 | Nc1ccc(-c2ccccc2)nc1NC(=O)C1CCN(Cc2ccccc2F)CC1 [Compound 379] | – |
| > 5000 | CC(=O)N1CCC(C(=O)Nc2nc(-c3ccccc3)ccc2N)CC1 [Compound 380] | – |
| > 5000 | Nc1ccc(-c2ccccc2)nc1NC(=O)C1CCN(C2COC2)CC1 [Compound 381] | – |
| > 5000 | Nc1cn(-c2ccccc2)nc1NC(=O)N1CC2COCC2C1 (stereo not shown) [Compound 382] | – |
| 100 to 500 | CN1CCC(c2ccc3c(c2)CN(C(=O)Nc2nn(-c4ccccc4)cc2N)C3)CC1 [Compound 383] | – |
| > 5000 | Nc1cn(-c2ccccc2)nc1NC(=O)N1CC2CCCC2C1 (stereo not shown) [Compound 384] | – |
| 500 to 5000 | Nc1ccc(-c2ccc(F)cc2)nc1NC(=O)N1CC2CCCC2C1 (stereo not shown) [Compound 385] | – |
| 100 to 500 | Nc1ccc(-c2ccc(F)cc2)nc1NC(=O)N1Cc2ccc(CN3CCC(F)(F)C3)cc2C1 [Compound 386] | – |

Source: patent US10919902B2, “Hetero-halo inhibitors of histone deacetylase” (Alkermes, Inc., priority 2015, dated 2021)
